Data: US6844020B2, “Solutions of carotenoids for use in foods and personal care products” (Kemin Foods, L.C., priority 2002, dated 2005)
Values joined by “and” are separate entries in the source; they are usually repeats but may differ in a detail not shown here. Equal values may be shown once. Read-outs that look alike come from different tables or passages of the source.

Tests used:
[1] = Lutein solubility in essential oils; assay type: physicochemical
Experimental: Lutein dry cake was dissolved in each oil until visibly saturated. The sample was then blanketed with argon and sonicated for ten minutes. If the all the lutein appeared to go into solution, more was added and the process repeated. After the sample was completely saturated, the sample was transferred to a microcentrifuge tube and centrifuged at 14,000 rpm for 10 minutes. If the lutein was not pelleted by centrifugation, the sample was passed through a 0.22 μm filter unit to remove any suspended lutein. The clarified oil was then analyzed for lutein content using UV-VIS and HPLC.
Lutein content was measured by using an analytical method as follows. Using an analytical balance, 10-20 mg of the sample is weighed into a 100 ml volumetric flask. The sample is diluted to the mark with HEAT (10:6:7:7 v:v:v:v hexane:ethanol:acetone:toluene), and the mixture is agitated or stirred until the sample is dissolved. One ml of this solution is transferred by pipette into a 100 ml amber volumetric flask and diluted to the mark with ethanol. The absorbance of the ethanol solution is measured at 446 nm on a UV/Vis spectrophotometer that has previously been zeroed against ethanol. For analysis by HPLC, 1 ml of the ethanol solution is transferred to an HPLC sample vial and dried using a nitrogen or argon gas stream. The dried sample is dissolved in 1 ml of HPLC mobile phase; sonication may be necessary to complete the solution. The HPLC instrument is set with the following parameters: the column is a 25 cm×4.6 mm nitrile bonded Spherisorb with 5 μm particles; 69 minute run time; flow rate of 1.00 ml/min; back pressure of 64 bar; injection volume of 50 μl; solvent of 75:25:0.35:0.1 (v:v:v:v) hexane/methylene chloride/methanol/diisopropylethylamine (all solvents are HPLC grade); detector is a visible lamp set to 446 nm; and temperature is 22° C. Fifty μl of the ethanol solution is injected into the HPLC column. The peaks at approximately 24, 26, 28.5, 32, 34, 40 and 42 minutes (corresponding to 13, 13′-di-cis-lutein, all-trans-lutein, all-trans-zeaxanthin, 9-cis-lutein, 9′-cis-lutein, 13 and 13′-cis -lutein and 9-cis-zeaxanthin) are integrated and used to determine the HPLC percent area for the lutein peak. The following equations were used for the essential oils: [formula] [formula] [formula]
% Lutein=% Carotenoids*(% Total HPLC area of lutein/100)

[2] = Stability of lutein dry cake in essential oils; assay type: physicochemical; settings: 20 weeks; for trans lutein dropped: accelerated conditions (40° C.); for lutein lost: ambient (25° C.)
Experimental: Stability experiments were performed with the best group of essential oils and lutein dry cake. Fresh samples were made, placed in amber vials, blanked with argon and placed onto stability at 25° C. and 40° C. after taking initial % carotenoids and % lutein. Bay, cornmint, peppermint, spearmint, tea tree, pure thyme, red thyme, and white thyme oils were all tested up to 20 weeks. FIGS. 1 and 2 show total carotenoids at ambient and FIGS. 3 and 4 show all trans lutein at ambient conditions. Tea tree oil and bay oil had the best stability of total carotenoids and all trans lutein at ambient conditions. Tea tree lost 32% lutein and pure thyme lost 22% lutein after 20 weeks. It should be noted that the oils were not tested at maximum lutein solubility conditions for stability testing.
FIGS. 5 and 6 show the same set of experiments for total carotenoids at accelerated conditions. FIGS. 7 and 8 show all trans lutein at accelerated conditions. Under accelerated conditions, bay oil, red thyme and pure thyme fared the best for total carotenoids and lutein. Bay oil trans lutein dropped 54% and pure/red thyme oil trans lutein dropped approximately 47% at 20 weeks. It seems the biggest drop occurs during the first 2-week time point then it levels off. All other oils did much worse.

[3] = consumption of lutein and zeaxanthin; Seddon et al., 1994; cited from earlier work
[4] = cited from earlier work

% Lutein ([1]; in Almond oil, NOW Foods 7660): 0.030%
% Lutein ([1]; in Aloe Vera LQX oil, Lebermuth 50-6010-11, lot Sample): 0.028%
% Lutein ([1]; in Anise, Spanish oil, Lebermuth 50-6015-11, lot Sample): 0.223%
% Lutein ([1]; in Apricot Kernel oil, NOW Foods 7665): 0.035%
% Lutein ([1]; in Bay oil, Lebermuth 50-6025-01, lot BA41-0484): 1% and 1.001%
% Lutein ([1]; in Bay oil, Lebermuth 50-6025-01, lot Sample): 1.152%
% Lutein ([1]; in Bay oil, Spectrum Botanical EO6): 1.327%
% Lutein ([1]; in Bergamot Mint oil, Lebermuth 50-6177-01, lot Sample): 0.325%
% Lutein ([1]; in Birch, Sweet Southern oil, Lebermuth 50-6035-02, lot Sample): 0.236%
% Lutein ([1]; in Cassia, redistilled oil, Lebermuth 50-6060-01, lot Sample): 0.639%
% Lutein ([1]; in Castor oil, NOW Foods 7675): 0.171%
% Lutein ([1]; in Cedarwood, Texas White oil, Lebermuth 50-6075-01, lot Sample): 0.172%
% Lutein ([1]; in Cornmint, Redistilled oil, Lebermuth 50-6100-01, lot CR43-0155): 0.951%
% Lutein ([1]; in Cornmint, Redistilled oil, Lebermuth 50-6100-01, lot Sample): 1.163%
% Lutein ([1]; in Eucalyptus, 80/85 oil, Lebermuth 50-6105-02, lot Sample): 0.672%
% Lutein ([1]; in Eugenol, Lebermuth 50-6110-01, lot Sample): 0.517%
% Lutein ([1]; in Frankincense, Olibanum oil, Lebermuth 50-5100-01, lot Sample): 0.243%
% Lutein ([1]; in Geranium (Rose), Egyptian oil, Lebermuth 50-6130-11, lot Sample): 0.600%
% Lutein ([1]; in Grapefruit, White oil, Lebermuth 50-6140-01, lot Sample): 0.071%
% Lutein ([1]; in Grapeseed oil, NOW Foods 7705): 0.027%
% Lutein ([1]; in Juniperberry oil, Lebermuth 50-6150-02, lot Sample): 0.140%
% Lutein ([1]; in Lemon, California oil, Lebermuth 50-6160-01, lot Sample): 0.071%
% Lutein ([1]; in Lime, distilled oil, Lebermuth 50-6170-01, lot Sample): 0.213%
% Lutein ([1]; in Nutmeg oil, Lebermuth 50-6190-01, lot Sample): 0.122%
% Lutein ([1]; in Peppermint oil, Spectrum Botanical EO64): 1.358%
% Lutein ([1]; in Peppermint, Yakima redistilled oil, Lebermuth 50-6225-21, lot PY43-0157): 0.945%
% Lutein ([1]; in Peppermint, Yakima redistilled oil, Lebermuth 50-6225-21, lot Sample): 1.010%
% Lutein ([1]; in Red Thyme Thymus satureioides oil, Spectrum Botanical, item unspecified): 1.0% and 1.084%
% Lutein ([1]; in Red Thyme Thymus vulgaris oil, Spectrum Botanical EO151): 4.4% and 4.481%
% Lutein ([1]; in Rosemary, Morrocan oil, Lebermuth 50-6230-03, lot Sample): 0.637%
% Lutein ([1]; in Sage, Clary oil, Lebermuth 50-6235-03, lot Sample): 0.294%
% Lutein ([1]; in Spearmint oil, Spectrum Botanical EO76): 1.325%
% Lutein ([1]; in Spearmint, redistilled oil, Lebermuth 50-6250-11, lot 39SR-0163): 1.124%
% Lutein ([1]; in Spearmint, redistilled oil, Lebermuth 50-6250-11, lot Sample): 1.001%
% Lutein ([1]; in Tagetes oil, Lebermuth 50-6261-01, lot Sample): 0.268%
% Lutein ([1]; in Tea Tree oil, Lebermuth 50-6270-01, lot TX43-0146): 0.877%
% Lutein ([1]; in Tea Tree oil, NOW Foods 7625): 1.084%
% Lutein ([1]; in Tea Tree oil, NOW Foods 7625, listed as lutein): about 1%
% Lutein ([1]; in Tea Tree oil, Spectrum Botanical EO80): 0.942%
% Lutein ([1]; in Thyme oil, NOW Foods 7635): 3.582%
% Lutein ([1]; in Thyme oil, NOW Foods 7635, listed as lutein): 2.5%
% Lutein ([1]; in Thyme, Pure oil, Lebermuth 50-6275-04, lot TP41-0053): 3.453%
% Lutein ([1]; in Thyme, Red oil, Lebermuth 50-6275-02, lot TR43-0158): 4.753%
% Lutein ([1]; in Thyme, White oil, Lebermuth 50-6275-01, lot TLC11-T477): 3.0% and 3.095%
% Lutein ([1]; in White Thyme oil (from private source), item unspecified): 5.068%
% Lutein ([1]; in White Thyme oil, Spectrum Botanical EO82): 4.9% and 4.903%
% Lutein ([1]; in Wintergreen, Natural oil, Lebermuth 50-6285-11, lot Sample): 0.226%
% Lutein ([1]; in Wormwood, Natural oil, Lebermuth 50-6290-01, lot Sample): 0.682%
lutein solubility ([1]; in citrus oils (white grapefruit, lemon, lime)): 0.071-0.21%
lutein solubility ([1]; in grapeseed, almond and apricot kernel oils, NOW Foods): 0.02-0.03%
lutein solubility ([1]; in spearmint oil (text comparison with beta-carotene)): ~1.0%
lutein solubility ([1]; in thyme oils (red, white, pure)): 3.0-4.7% and 3.5-5% and 3-5%
trans lutein dropped ([2]; in bay oil): 54%
lutein lost ([2]; in pure thyme oil): 22%
trans lutein dropped ([2]; in pure/red thyme oil): approximately 47%
lutein lost ([2]; in tea tree oil): 32%
SMILES: CC1=C[C@H](O)CC(C)(C)[C@H]1/C=C/C(C)=C/C=C/C(C)=C/C=C/C=C(C)/C=C/C=C(C)/C=C/C1=C(C)C[C@@H](O)CC1(C)C [Lutein, lutein]
reduction in age-related macular degeneration [3]: 57%
reported solubility ([4]; in canola oil): 0.029%
reported solubility ([4]; in corn oil): 0.042%
reported solubility ([4]; in safflower oil): 0.033%
reported solubility ([4]; in soybean oil): 0.032%
